# Assay results published in PubChem BioAssay (NCI).
#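 Following 48 hours of exposure in 96-well plates, responses at five concentrations were used to interpolate endpoints linearly. At the GI50, growth is halved. TGI: concentration producing complete growth inhibition.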
# Legend:
# Test in all cases: NCI anticancer screen, dose series, 48 h
# [1] = test system: MCF7 breast
# [2] = test system: RXF 393 renal
# [3] = test system: SNB-19 CNS
# [4] = test system: EKVX NSCLC
# [5] = test system: IGROV1 ovarian
# [6] = test system: HT29 colon
# [7] = test system: SF-295 CNS
# [8] = test system: OVCAR-4 ovarian
# [9] = test system: MDA-MB-231 breast
# [10] = test system: HL-60(TB) leukemia
Compound,GI50 [1],TGI [1],GI50 [2],TGI [2],GI50 [3],TGI [3],GI50 [4],TGI [4],GI50 [5],TGI [5],GI50 [6],TGI [6],GI50 [7],TGI [7],GI50 [8],TGI [8],GI50 [9],TGI [9],GI50 [10],TGI [10]
CCN(C(=O)c1cc(F)ccc1Oc1cncnc1N1CC2(CCN(CC3CCC(NS(=O)(=O)CC)CC3)CC2)C1)C(C)C (configuration not stated),> 100 µM,> 100 µM,> 100 µM,> 100 µM,> 100 µM,> 100 µM,> 100 µM,> 100 µM,> 100 µM,> 100 µM,> 100 µM,> 100 µM,> 100 µM,> 100 µM,> 100 µM,> 100 µM,> 100 µM,> 100 µM,> 100 µM,> 100 µM
Cc1cccc2c(=O)c3c(sc12)c(NCCNCCO)nc1ccccc13,1.24 µM,2.72 µM,1.43 µM,2.77 µM,,,1.5 µM,2.92 µM,1.19 µM,2.65 µM,1.4 µM,3.13 µM,1.73 µM,3.21 µM,1.75 µM,3.48 µM,1.23 µM,2.62 µM,1.89 µM,3.59 µM
Nc1nc(-c2ccccc2)nc2c1[n+]([O-])c1ccccc1[n+]2[O-],,> 100 µM,,> 100 µM,,> 100 µM,,> 100 µM,,> 100 µM,,> 100 µM,,> 100 µM,,,,> 100 µM,,> 100 µM
c1cc(CNCCN2CCNCC2)ccn1,,> 100 µM,,> 100 µM,,> 100 µM,,> 100 µM,,> 100 µM,,> 100 µM,,> 100 µM,,> 100 µM,,> 100 µM,,
C=C1CCC2C(C)(C)CCC[C@]2(C)[C@H]1CO (some centres not stated),49.1 µM,> 100 µM,> 100 µM,> 100 µM,> 100 µM,> 100 µM,53.5 µM,> 100 µM,> 100 µM,> 100 µM,52.7 µM,> 100 µM,> 100 µM,> 100 µM,,,50.2 µM,> 100 µM,15.8 µM,> 100 µM
COC(=O)CCCC(=O)O,,> 100 µM,,> 100 µM,,> 100 µM,,> 100 µM,,> 100 µM,,> 100 µM,,> 100 µM,,> 100 µM,,> 100 µM,,
N#CSCC1CC(O)(c2ccccc2)CC(c2ccc(F)cc2)O1 (configuration not stated),2.64 µM,8.33 µM,1.72 µM,3.47 µM,4.14 µM,13.7 µM,1.94 µM,5.43 µM,3.19 µM,12 µM,1.97 µM,4.19 µM,1.64 µM,3.34 µM,2.42 µM,8.08 µM,1.97 µM,4.2 µM,,
COc1ccc(Nc2c3ccccc3nc3ccccc23)cc1,0.409 µM,13 µM,2.04 µM,12.1 µM,3.19 µM,18.3 µM,,,0.629 µM,8.72 µM,0.454 µM,2.71 µM,0.904 µM,10.4 µM,2.06 µM,15 µM,2.58 µM,19.3 µM,1.69 µM,4.1 µM
COc1cc2c3c(n(CCCI)c(=O)c2cc1OC)-c1cc2c(cc1C3=O)OCO2,0.404 µM,6.01 µM,6.81 µM,> 100 µM,> 100 µM,> 100 µM,,,5.24 µM,> 100 µM,5.46 µM,> 100 µM,0.776 µM,> 100 µM,17.2 µM,> 100 µM,18.7 µM,> 100 µM,1.08 µM,> 100 µM
CN1c2ccccc2C(C)(C)C12C=Cc1cc(O)ccc1O2 (configuration not stated),3.52 µM,,,,2.94 µM,8.46 µM,3.66 µM,14.5 µM,4.69 µM,14.9 µM,3.33 µM,11.6 µM,2.71 µM,12.8 µM,4.73 µM,17.6 µM,3.93 µM,16.3 µM,1.89 µM,11.8 µM
COc1cc(/C=C/C(=O)c2ccc(NC(=O)CN3CCN(c4cc5c(cc4F)c(=O)c(C(=O)O)cn5C4CC4)CC3)cc2)cc(OC)c1OC,0.381 µM,> 100 µM,0.273 µM,0.803 µM,2.71 µM,> 59.5 µM,,,0.671 µM,3.37 µM,0.285 µM,1.02 µM,0.98 µM,3.69 µM,1.38 µM,22.3 µM,0.712 µM,6.36 µM,1.75 µM,> 29.8 µM
